The text below walks through data of PubChem BioAssay AID330 (DTP/NCI, 2004).

Several values for one entry are separate records, joined by “and”; a condition that tells them apart may be missing. Identical values can stand only once. Inconclusive results and toxic doses are left out.

For the experiment, the system named is P388 leukemia ip, CD2F1 mice, survival T/C. The experiment is described as follows: NCI In Vivo Anticancer Drug Screen. Data for tumor model P388 Leukemia (intraperitoneal) in CD2F1 (CDF1) mice. Particulars: endpoint: median survival time, higher = longer survival. In short, it runs like this: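 Mice carrying the transplanted tumor received test compound or vehicle. Survival was recorded in each group, and the value is the treated-group measurement divided by that of the vehicle-treated control group.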

Where [1] appears, read: dose: 2.0 mg/kg/injection, schedule: Q01DX009 (ip), vehicle: acid diluted with saline.
The mark [2] stands for this setting: dose: 4.0 mg/kg/injection, schedule: Q01DX009 (ip), vehicle: acid diluted with saline.
Where [3] appears, read: dose: 6.25 mg/kg/injection, schedule: Q01DX009 (ip), vehicle: Klucel (hydroxypropylcellulose) (HPC).
[4] abbreviates: dose: 12.5 mg/kg/injection, schedule: Q01DX009 (ip), vehicle: Klucel (hydroxypropylcellulose) (HPC).
Where [5] appears, read: dose: 50.0 mg/kg/injection, schedule: Q01DX009 (ip), vehicle: Klucel (hydroxypropylcellulose) (HPC).
Where [6] appears, read: dose: 100.0 mg/kg/injection, schedule: Q01DX009 (ip), vehicle: Klucel (hydroxypropylcellulose) (HPC).
The mark [7] stands for this setting: dose: 200.0 mg/kg/injection, schedule: Q01DX009 (ip), vehicle: Klucel (hydroxypropylcellulose) (HPC).

Take `CN1CCc2cc3c(c4c2C1C(O)c1ccccc1-4)OCO3` (stereo not drawn): the T/C is 109 % of control (dose: 0.12 mg/kg/injection, schedule: Q01DX009 (ip), vehicle: acid diluted with saline); 97 % of control (dose: 0.25 mg/kg/injection, schedule: Q01DX009 (ip), vehicle: acid diluted with saline); 92 % of control under setting [1]; 108 % of control under setting [2].
On to `CC1CCC2C(C)C(=O)OC3OC4(C)CCC1C32OO4` (stereo not drawn), for which the T/C (dose: 2.5 mg/kg/injection, schedule: Q01DX005 (ip), vehicle: saline + alcohol) was 105 % of control; the T/C (dose: 5.0 mg/kg/injection, schedule: Q01DX005 (ip), vehicle: saline + alcohol) was 108 % of control; the T/C (dose: 10.0 mg/kg/injection, schedule: Q01DX005 (ip), vehicle: saline + alcohol) was 108 % of control; the T/C (dose: 20.0 mg/kg/injection, schedule: Q01DX005 (ip), vehicle: saline + alcohol) was 105 % of control.
For `[Cl][Sn]([Cl])([c]1ccccc1)[c]1ccccc1.c1ccncc1.c1ccncc1`, the T/C by setting is: (dose: 3.12 mg/kg/injection, schedule: Q01DX009 (ip), vehicle: saline) 150 % of control; under setting [3], 153 % of control and 166 % of control; (dose: 6.25 mg/kg/injection, schedule: Q01DX009 (ip), vehicle: saline) 156 % of control; under setting [4], 155 % of control and 180 % of control; (dose: 12.5 mg/kg/injection, schedule: Q01DX009 (ip), vehicle: saline with Tween-80) 151 % of control.
In the case of `CNc1n[nH]c(-c2ccccc2)n1`, the T/C was 101 % of control under setting [5], 102 % of control under setting [6] and 102 % of control under setting [7].
In the case of `CN(C)CC/C=C1/c2ccccc2C=Nc2ccc(Cl)cc21`, the T/C is, setting by setting: under setting [3], 116 % of control; under setting [4], 108 % of control; (dose: 25.0 mg/kg/injection, schedule: Q01DX009 (ip), vehicle: Klucel (hydroxypropylcellulose) (HPC)) 99 % of control.
Consider `COc1ccc(/C=N\NC(=O)CNC(=O)Nc2cccc([N+](=O)[O-])c2)cc1O`, for which the T/C by setting is: (dose: 15.0 mg/kg/injection, schedule: Q01DX005 (ip), vehicle: saline with Tween-80) 107 % of control; (dose: 30.0 mg/kg/injection, schedule: Q01DX005 (ip), vehicle: saline with Tween-80) 93 % of control; (dose: 60.0 mg/kg/injection, schedule: Q01DX005 (ip), vehicle: saline with Tween-80) 89 % of control; (dose: 240.0 mg/kg/injection, schedule: Q01DX005 (ip), vehicle: saline with Tween-80) 91 % of control and 93 % of control.
As to `CN1C2(c3ccccc3)OC(=O)C1(c1ccccc1)C1C(=O)C3C4c5ccccc5C(c5ccccc54)C3C(=O)C12` (stereo not drawn), the T/C by setting is: under setting [5], 94 % of control; under setting [6], 100 % of control; under setting [7], 94 % of control.
Take `C(=C\c1ccccc1)/C[P+](c1ccccc1)(c1ccccc1)c1ccccc1`: the T/C is 90 % of control (dose: 0.62 mg/kg/injection, schedule: Q01DX009 (ip), vehicle: saline); 100 % of control (dose: 0.63 mg/kg/injection, schedule: Q01DX009 (ip), vehicle: saline with Tween-80); 122 % of control (dose: 1.25 mg/kg/injection, schedule: Q01DX009 (ip), vehicle: saline with Tween-80); 93 % of control (dose: 1.25 mg/kg/injection, schedule: Q01DX009 (ip), vehicle: saline); 109 % of control (dose: 2.5 mg/kg/injection, schedule: Q01DX009 (ip), vehicle: saline with Tween-80); 90 % of control (dose: 2.5 mg/kg/injection, schedule: Q01DX009 (ip), vehicle: saline). Besides, the T/C (dose: 5.0 mg/kg/injection, schedule: Q01DX009 (ip), vehicle: saline) is 98 % of control.
In the case of `O=C1/C(=C/c2ccc([N+](=O)[O-])cc2)Cc2c1cccc2[N+](=O)[O-]`, the T/C is 98 % of control (dose: 25.0 mg/kg/injection, schedule: Q01DX001 (ip), vehicle: saline with Tween-80); 98 % of control (dose: 50.0 mg/kg/injection, schedule: Q01DX001 (ip), vehicle: saline with Tween-80); 99 % of control and 95 % of control (dose: 100.0 mg/kg/injection, schedule: Q01DX001 (ip), vehicle: saline with Tween-80); 93 % of control (dose: 200.0 mg/kg/injection, schedule: Q01DX001 (ip), vehicle: saline with Tween-80); 89 % of control (dose: 400.0 mg/kg/injection, schedule: Q01DX001 (ip), vehicle: saline with Tween-80).
Consider `O=C(Nc1ccc(Nc2ccncc2)cc1)c1ccc([N+](=O)[O-])cc1`, for which the T/C was 90 % of control under setting [6]; 100 % of control under setting [7]; 90 % of control (dose: 400.0 mg/kg/injection, schedule: Q01DX009 (ip), vehicle: Klucel (hydroxypropylcellulose) (HPC)).
As for `O=C(CNNC(=O)c1ccncc1)Nc1ccc(S(=O)(=O)c2ccc(NC(=O)CNNC(=O)c3ccncc3)cc2)cc1`, the T/C (dose: 25.0 mg/kg/injection, schedule: Q01DX005 (ip), vehicle: Klucel (hydroxypropylcellulose) (HPC)) was 89 % of control; the T/C (dose: 50.0 mg/kg/injection, schedule: Q01DX005 (ip), vehicle: Klucel (hydroxypropylcellulose) (HPC)) is 90 % of control and 91 % of control; the T/C (dose: 200.0 mg/kg/injection, schedule: Q01DX005 (ip), vehicle: Klucel (hydroxypropylcellulose) (HPC)) was 86 % of control.
Regarding `CC(=O)Nc1cccc(N=Cc2ccc[nH]2)c1`, the T/C (dose: 100.0 mg/kg/injection, schedule: Q04DX003 (ip), vehicle: Klucel (hydroxypropylcellulose) (HPC)) is 99 % of control and the T/C (dose: 200.0 mg/kg/injection, schedule: Q04DX003 (ip), vehicle: Klucel (hydroxypropylcellulose) (HPC)) is 100 % of control.
With `CC(O)CNCCNc1ccc(NCCNCC(C)O)c2c1C(=O)c1c(O)ccc(O)c1C2=O` (stereo not drawn), the T/C was 165 % of control (dose: 0.5 mg/kg/injection, schedule: Q01DX009 (ip), vehicle: acid diluted with saline); 150 % of control (dose: 1.0 mg/kg/injection, schedule: Q01DX009 (ip), vehicle: acid diluted with saline); 200 % of control under setting [1]; 234 % of control under setting [2]; 202 % of control (dose: 8.0 mg/kg/injection, schedule: Q01DX009 (ip), vehicle: acid diluted with saline).
Take `S=C(Nc1ccc(Cl)cc1)SC1CCCCC1`: the T/C (dose: 25.0 mg/kg/injection, schedule: Q01DX009 (ip), vehicle: saline) was 100 % of control; the T/C (dose: 50.0 mg/kg/injection, schedule: Q01DX009 (ip), vehicle: saline) was 102 % of control and 108 % of control; the T/C (dose: 100.0 mg/kg/injection, schedule: Q01DX009 (ip), vehicle: saline) was 118 % of control and 119 % of control; the T/C (dose: 200.0 mg/kg/injection, schedule: Q01DX009 (ip), vehicle: saline) is 124 % of control.
Take `O=C(N=Nc1ccccc1)Nc1ccc(Br)cc1`: the T/C is, setting by setting: (dose: 50.0 mg/kg/injection, schedule: Q01DX005 (ip), vehicle: saline with Tween-80) 101 % of control; (dose: 100.0 mg/kg/injection, schedule: Q01DX005 (ip), vehicle: saline with Tween-80) 101 % of control; (dose: 200.0 mg/kg/injection, schedule: Q01DX005 (ip), vehicle: saline with Tween-80) 104 % of control.
On to `O=C(Nc1ccc(Cl)c(Cl)c1)O/N=C/c1ccncc1`, for which the T/C reads like this: (dose: 50.0 mg/kg/injection, schedule: Q01DX009 (ip), vehicle: saline + alcohol) 96 % of control; (dose: 100.0 mg/kg/injection, schedule: Q01DX009 (ip), vehicle: saline + alcohol) 89 % of control; (dose: 200.0 mg/kg/injection, schedule: Q01DX009 (ip), vehicle: saline + alcohol) 89 % of control.
`C=C(C)C12CC(C)C34OC5(OC1C3C1OC1(CO)C(O)C1(O)C(OC(=O)c3ccccc3)C(C)C(C(C)CCCCCCC5O)C14)O2` (stereo not drawn): the T/C is 102 % of control (dose: 1.9 micrograms/kg/injection, schedule: Q01DX009 (ip), vehicle: distilled water + alcohol); 115 % of control (dose: 3.8 micrograms/kg/injection, schedule: Q01DX009 (ip), vehicle: distilled water + alcohol); 120 % of control (dose: 7.5 micrograms/kg/injection, schedule: Q01DX009 (ip), vehicle: distilled water + alcohol); 152 % of control (dose: 30.0 micrograms/kg/injection, schedule: Q01DX009 (ip), vehicle: distilled water + alcohol).
`Cc1ccc(-c2nc3ccccc3c(=O)n2/N=C/c2ccccc2O)cc1`: the T/C is 101 % of control (dose: 50.0 mg/kg/injection, schedule: Q01DX009 (ip), vehicle: saline with Tween-80); 100 % of control (dose: 100.0 mg/kg/injection, schedule: Q01DX009 (ip), vehicle: saline with Tween-80); 93 % of control (dose: 200.0 mg/kg/injection, schedule: Q01DX009 (ip), vehicle: saline with Tween-80).
